Assay results: US10010534B2, “Intravenous formulation and LC/MS/MS analysis method for GMC1” (THE BOARD OF REGENTS OF THE UNIVERSITY OF TEXAS SYSTEM, priority 2016, dated 2018)
≈ marks a conversion by molar mass, not a printed value. Where two headings read alike, the source gives them in different places.

Columns and labels:
[1] = Short-term (bench-top) stability of GMC1 plasma and urine samples; assay type: physicochemical, rat; conditions: read-out: Mean Recovery ± SD, short-term stability; for recovery at 2 h: bench-top 2 h; for recovery at 4 h: bench-top 4 h; for recovery at 6 h: bench-top 6 h
Experimental: The short-term (bench-top) stability of GMC1 plasma and urine samples was evaluated by analyzing three sets each of GMC1 plasma and urine samples freshly prepared and placed on the bench-top for 2, 4, and 6 h, respectively. All the samples were compared with freshly prepared samples of the same concentration.

[2] = Freeze-thaw cycle stability of GMC1 plasma and urine samples; assay type: physicochemical, rat; conditions: read-out: Mean Recovery ± SD, freeze-thaw cycle stability
Experimental: The freeze-thaw cycle stability of GMC1 plasma and urine samples was evaluated by comparing QC plasma and urine samples exposed to three cycles of freeze (at −80° C.) and thaw (room temperature) to freshly prepared QC samples at the same concentration. Average recoveries from freeze-thawed plasma samples were 106±5.9%, 98.5±3.7% and 94.1±2.9% for GMC1 concentrations of 10, 200 and 400 ng/mL respectively. Average recovery from urine samples were 113±8.9%, 101±3.9%, and 86.6±7.5% for 10, 200 and 400 ng/mL GMC1 concentrations respectively.

[3] = Processed sample (on-instrument or auto-sampler) stability; assay type: physicochemical; conditions: rat
Experimental: The stability of processed samples (on-instrument or auto-sampler stability) was also evaluated by comparing freshly prepared plasma and urine QC samples to samples placed on the auto-sampler for 2, 4, and 6 h respectively. One set of the plasma and urine QC samples was extracted with methanol containing IS, and another set with pure methanol without IS.

[4] = Solubility of GMC1 in selected solvents by the shaker method; assay type: physicochemical; conditions: thermodynamic from solid, read-out: Mean Solubility ± SD
Experimental: Solubility information in various solvents is important in developing a suitable intravenous formulation of GMC1 for preclinical and clinical studies. The solubility of GMC1 in water, ethanol, polyethylene glycol 300 and 400, propylene glycol monocapryrate type I (Capyrol 90®), dimethyl sulfoxide (DMSO), dimethyl acetamide (DMA), Tween 80®, Labrasol®, Labrafac®, soybean oil, and oleic acid were determined by the shaker method. Briefly, excess amount of GMC1 was added to each of the selected solvents in a scintillation vial and shook using a reciprocating shaker at room temperature for 72 h. The samples were centrifuged at 14,000 rpm for 10 min and subsequently filtered through a 0.22 μm filtration unit, the resulting filtrate analyzed by LC/MS/MS to determine the GMC1 dissolved in the solvents. The study was conducted in triplicate.

[5] = Water-octanol partition co-efficient (log P), shaker method; assay type: physicochemical
Experimental: The water-octanol partition co-efficient (log P) of GMC1, a measure of how hydrophilic (“water-loving”) or hydrophobic (“water-fearing”) GMC1 is, was also evaluated using the shaker method.

[6] = Pharmacokinetic study of the GMC1 co-solvent formulation, IV bolus; assay type: in vivo, male Sprague Dawley rats; conditions: rat, single 2 mg/kg IV bolus, three compartment model; for half-life / Vd: iv, 2 mg/kg
Experimental: Pharmacokinetic Studies of the GMC1 Co-Solvent Formulation. Pharmacokinetic study, which elucidates the fate of GMC1 in living systems, was performed. The pharmacokinetic study also verifies the applicability of the LC/MS/MS assay method and the formulation. A rat model was employed and male Sprague Dawley rats were selected as an animal model based on the similarity to humans in metabolism. Four male Sprague Dawley rats (body weight: 300-350 g) were cannulated through the jugular vein under anesthesia (using a cocktail of ketamine:acepromazine:xylazine at a ratio of 50:3.3:3.3 mg/kg). On the following day, the optimal co-solvent formulation of GMC1 (consisting of Labrasol® 50:50 PEG 300, and GMC1 10 mg/mL) was diluted ten times in normal saline to 1 mg/mL. Each rat was administered a 2 mg/kg IV bolus dose of GMC1. Heparinized blood samples were withdrawn from each rat at 5, 10, 15, 30, 60, 120, 240, 480, 720, 1440, 2880, 3240 min after injection. The blood samples were centrifuged at 14,000 rpm for 6 min and the supernatant plasma obtained and stored at −80° C. until analysis. Urine samples were also collected at 0, 60, 240, 480, 720, and 1440 min. The plasma and urine samples were analyzed (within 7 days) using the LC/MS/MS method described herein to obtain the concentration of GMC1.
The pharmacokinetic parameters for each rat were determined with Phoenix WinNonlin 6.3 software (Pharsight Corporation, Mountain View, Calif., USA) using a three compartment, which best described the fit for the IV bolus administration of GMC1, based on the observed and predicted fits of the plasma concentration versus time plot, the reduction in the sums of squares, and the Akaike's information criterion (AIC) for comparing compartmental models (Yamaoka et al., Journal of Pharmacokinetics and Biopharmaceutics 1978, 6(2):165-75). The three-compartment model is described by the equation: Ct=A·e^−αt+B·e^−βt+C·e^−γt where A, B and C are the coefficients, α, β, and γ are alpha, beta and gamma phase rate constants respectively, and Ct is the plasma concentration of GMC1 at time, t.
The weighting scheme of concentration^−2 (Y^−2) was used to determine the model that best fits the individual profiles.

[7] = system: 22Rv1 prostate cancer cell; test: 22Rv1 prostate cancer cell proliferation; assay type: cell-based
androgen receptor (AR) = conditions: variety of cell lines; cited from earlier work
[8] = system: glucocorticoid receptor (GR); conditions: variety of cell lines; cited from earlier work
[9] = processed plasma sample (methanol extract), plasma extracted with methanol containing IS, read-out: Mean Recovery ± SD, auto-sampler stability, With IS
[10] = processed plasma sample (methanol extract), plasma extracted with pure methanol, read-out: Mean Recovery ± SD, auto-sampler stability, No IS
[11] = processed urine sample (methanol extract), urine extracted with methanol containing IS, read-out: Mean Recovery ± SD, auto-sampler stability, With IS
[12] = processed urine sample (methanol extract), urine extracted with pure methanol, read-out: Mean Recovery ± SD, auto-sampler stability, No IS

recovery at 2 h ([1]; rat plasma): 97.4 ± 8.89% | recovery at 4 h ([1]; rat plasma): 88.9 ± 2.63% | recovery at 6 h ([1]; rat plasma): 80.1 ± 5.71% | recovery at 2 h ([1]; rat urine): 94.2 ± 4.66% | recovery at 4 h ([1]; rat urine): 93.9 ± 0.76% | recovery at 6 h ([1]; rat urine): 93.7 ± 1.23% | recovery at 10 ng/mL ([2]; rat plasma, three cycles −80° C./room temperature): 106 ± 5.9% | recovery at 200 ng/mL ([2]; rat plasma, three cycles): 98.5 ± 3.7% | recovery at 400 ng/mL ([2]; rat plasma, three cycles): 94.1 ± 2.9% | recovery at 10 ng/mL ([2]; rat urine, three cycles): 113 ± 8.9% | recovery at 200 ng/mL ([2]; rat urine, three cycles): 101 ± 3.9% | recovery at 400 ng/mL ([2]; rat urine, three cycles): 86.6 ± 7.5% | recovery at 2 h [3, 9]: 89.9 ± 4.7% | recovery at 4 h [3, 9]: 97.5 ± 1.5% | recovery at 6 h [3, 9]: 96.2 ± 5.6% | recovery at 2 h [3, 10]: 94.7 ± 7.9% | recovery at 4 h [3, 10]: 99.7 ± 4.5% | recovery at 6 h [3, 10]: 98.4 ± 6.2% | recovery at 2 h [3, 11]: 96.4 ± 2.8% | recovery at 4 h [3, 11]: 98.5 ± 1.1% | recovery at 6 h [3, 11]: 97.1 ± 4.8% | recovery at 2 h [3, 12]: 96.1 ± 2.4% | recovery at 4 h [3, 12]: 89.7 ± 8.8% | recovery at 6 h [3, 12]: 95.2 ± 2.2% | solubility at 72 h ([4]; DMSO, organic solvent or mixture, DMSO, room temperature): ≥ 100 mg/mL | solubility at 72 h ([4]; Labrafac, oil or lipid, Labrafac, room temperature): 1.2 ± 0.01 mg/mL (≈ 3.53 mM) | solubility at 72 h ([4]; Labrasol, aqueous with cosolvent or surfactant or cyclodextrin, Labrasol, room temperature): 36.4 ± 2.9 mg/mL (≈ 107 mM) | solubility at 72 h ([4]; PEG 300, organic solvent or mixture, PEG 300, room temperature): 36.6 ± 1.12 mg/mL (≈ 108 mM) | solubility at 72 h ([4]; PEG 400, organic solvent or mixture, PEG 400, room temperature): 35.7 ± 1.41 mg/mL (≈ 105 mM) | solubility at 72 h ([4]; Tween 80, aqueous with cosolvent or surfactant or cyclodextrin, Tween 80, room temperature): 20.3 ± 5.39 mg/mL (≈ 59.6 mM) | solubility at 72 h ([4]; dimethyl acetamide, organic solvent or mixture, Dimethyl acetamide, room temperature): ≥ 100 mg/mL | solubility at 72 h ([4]; ethanol, organic solvent or mixture, Ethanol, room temperature): 6.3 ± 0.29 mg/mL (≈ 18.5 mM) | solubility at 72 h ([4]; oleic acid, oil or lipid, Oleic Acid, room temperature): 2.2 ± 0.02 mg/mL (≈ 6.46 mM) | solubility at 72 h ([4]; soybean oil, oil or lipid, Soy bean oil, room temperature): 1.1 ± 0.02 mg/mL (≈ 3.23 mM) | logP [5]: 3.48 ± 0.03 | AUC(0-inf) ([6]; male, Sprague Dawley, plasma): 3900 ng·h/mL | Cmax ([6]; male, Sprague Dawley, plasma): 7640 ± 1980 ng/mL | clearance ([6]; male, Sprague Dawley, plasma, read-out: Cl (total body clearance)): 8.9 ± 1.66 mL/min/kg | half-life ([6]; male, Sprague Dawley, plasma, read-out: T1/2α (distribution half-life of α-phase)): 0.11 ± 0.036 h | half-life ([6]; male, Sprague Dawley, plasma, read-out: T1/2β (elimination half-life of β-phase)): 1.23 ± 0.42 h | half-life ([6]; male, Sprague Dawley, plasma, read-out: T1/2γ (elimination half-life of γ-phase)): 19.7 ± 5.09 h | Vd ([6]; male, Sprague Dawley, plasma, read-out: V1 (volume of distribution of central compartment)): 0.278 ± 0.0642 L/kg | Vd ([6]; male, Sprague Dawley, plasma, read-out: Vss (volume of distribution at steady state)): 7.73 ± 1.22 L/kg | A (coefficient of α-phase) [6]: 6528.9 ± 1996.01 ng/mL | B (coefficient of β-phase) [6]: 1038.5 ± 546.09 ng/mL | C (coefficient of γ-phase) [6]: 75.1 ± 20.24 ng/mL | V2 (volume of distribution of first peripheral compartment) [6]: 0.5595 ± 0.20603 L/kg | V3 (volume of distribution of second peripheral compartment) [6]: 6.8665 ± 1.11754 L/kg
SMILES: COc1ccc(/C=N/NC(=O)CSc2nc3ccccc3[nH]2)cc1 [GMC1]
concentration range inhibiting cell proliferation [7]: low micromolar | concentration range inhibiting receptor activity (androgen receptor (AR)): low to mid micro-molar | concentration range inhibiting receptor activity [8]: low to mid micro-molar
